# Assay results as given in patent US9464326B2, “Total and phosphorylated IL-1 receptor-associated kinase-1 and IL-1 receptor-associated kinase-4 as a biomarker for cancer progression and chemotherapy resistance” (University of Maryland, Baltimore, priority 2012, dated 2016).
# System: CCRF-CEM cells
# Assay: Cell number and apoptosis assays
# Type: cell-based, human
# Settings: IRAK-1,-4 inhibitor 0-20 μM plus titrated drug, apoptosis by 7AAD at 48 hours, FIG. 23
# Experimental: TLR ligands were diluted 2-fold. Cell lines (25-40×10^3/well) were cultured for 54 hours, whereas fresh patient-derived T-ALL cells (200×10^3/well) were cultured for 30 hours prior to adding [^3H]-thymidine for 18 hours. After this time point, cells were harvested with a Packard Filter-Mate-96 cell harvester (Perkin Elmer, Waltham, Mass., USA) and counted on Packard Top Count-NXT (Perkin Elmer, Waltham, Mass., USA). Results were expressed as average counts per minute (cpm). In some experiments CCRF-CEM cells were pre-treated with TLR1-TLR2 ligand (Pam3CysK4; 2.5 ug/ml) for 48 hrs, washed, and then cultured in the presence of varying concentrations of FBS. Forty-eight hours later, proliferation (±SD) was determined by ^3H-thymidine incorporation. Alternatively, apoptosis was measured by flow cytometry after staining cells with Annexin-V (BD Pharmingen, San Diego, Calif., USA) and propidium iodide (Sigma). Cell number was counted under microscopy by staining cells with trypan blue.
# CCRF-CEM cells were treated with IRAK-1,-4 inhibitor for 24, 48, 72, and 96 hours.
# The T-ALL cell line CCRF-CEM was cultured in the presence of 0, 1.2, 5, 10, and 20 μM IRAK-1,-4 inhibitor. (FIG. 23). To each concentration of IRAK-1,-4 inhibitor titrating doses of ABT-737 (1000→15 nM) vincristine, VS (10→0.1 nM), and paclitaxol, PAC (100→1.5 nM). […] Apoptosis was measure 48 hours later by staining cells with 7AAD and analyzed by flow cytometry.
smiles,measurement,value
CC[C@]1(O)C[C@H]2CN(CCc3c([nH]c4ccccc34)[C@@](C(=O)OC)(c3cc4c(cc3OC)N(C=O)[C@H]3[C@@](O)(C(=O)OC)[C@H](OC(C)=O)[C@]5(CC)C=CCN6CC[C@]43[C@@H]65)C2)C1 [vincristine],"synergy with IRAK-1,-4 inhibitor",synergy
